Four compounds from ChEMBL document CHEMBL1201862, “PubChem BioAssay data set” (2004) can be followed below.

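All cell lines were grown in 96-well plates and treated with compound for 48 hours. GI50 marks 50% less growth.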 The source made the active and inactive calls. Rule as the data show it: active = GI50 up to about 1.1 µM and inactive = higher.

Some test systems named below: SNB-75; OVCAR-5; K562; COLO 205; NCI/ADR-RES; MDA-N; NCI-H460; RPMI-8226; UACC-257; T47D; SF-539; DU-145; Hs-578T; M14; BT-549; SK-MEL-5; A498; HT-29; SF-268.
Test in all cases: growth of human tumour cells (NCI), 48 h

Take `Clc1c2ncccc2cc2nn[nH]c12`: the GI50 was 28.5 µM (inactive) in the assay on SNB-75; 74.5 µM (inactive) with OVCAR-5; > 100 µM (inactive) in the assay with K562; > 100 µM (inactive) with COLO 205; > 100 µM (inactive) with NCI/ADR-RES; > 100 µM (inactive) in the assay on MDA-N. Further, the GI50 with NCI-H460 is 49.2 µM (inactive); in the assay on RPMI-8226 it was > 100 µM (inactive); with UACC-257, > 100 µM (inactive); with T47D, > 100 µM (inactive); with SF-539 it was > 100 µM (inactive); with DU-145 it was > 100 µM (inactive). The GI50 with Hs-578T is 93.8 µM (inactive); with M14, > 100 µM (inactive); in the assay on BT-549, > 100 µM (inactive); in the assay on SK-MEL-5, > 100 µM (inactive); in the assay on A498, > 100 µM (inactive); in the assay with HT-29, > 100 µM (inactive). In addition, in the assay with SF-268, the GI50 was > 100 µM (inactive).
Regarding `C=CC/C=C/Cc1csc(C(C)(C)C(O)C/C=C/C(=C)CCNC(=O)OC)n1` (stereo unspecified), the GI50 in the assay on SNB-75 is 43 µM (inactive); in the assay with OVCAR-5, > 100 µM (inactive); with K562, 0.845 µM (active); in the assay on COLO 205 it was 59.7 µM (inactive); in the assay on NCI/ADR-RES, 75.7 µM (inactive); with MDA-N it was 45.8 µM (inactive). Moreover, the GI50 in the assay on NCI-H460 was 29.5 µM (inactive); in the assay on RPMI-8226, 30.7 µM (inactive); in the assay on UACC-257, 1.49 µM (inactive); in the assay on T47D it was > 100 µM (inactive); with SF-539, > 100 µM (inactive); in the assay with DU-145, > 100 µM (inactive). Besides, the GI50 is > 100 µM (inactive) in the assay with Hs-578T; 43.5 µM (inactive) in the assay with M14; 3.33 µM (inactive) in the assay with BT-549; 1.17 µM (inactive) in the assay with SK-MEL-5; > 60.5 µM (inactive) in the assay with A498; 48.8 µM (inactive) in the assay on HT-29. In addition, the GI50 in the assay with SF-268 was 80.4 µM (inactive).
Consider `O=C(O)CCc1nc2c(n1Cc1ccccc1)C(=O)c1ccccc1C2=O`, for which the GI50 was > 100 µM (inactive) in the assay with SNB-75; > 100 µM (inactive) in the assay on OVCAR-5; 57.3 µM (inactive) with K562; 33.9 µM (inactive) in the assay on COLO 205; 59.6 µM (inactive) with NCI/ADR-RES; 21.5 µM (inactive) in the assay on MDA-N. Besides, the GI50 in the assay with NCI-H460 was 37.9 µM (inactive); in the assay on RPMI-8226 it was 39 µM (inactive); in the assay with UACC-257 it was 33.7 µM (inactive); in the assay on T47D, 52 µM (inactive); in the assay on SF-539 it was 28.1 µM (inactive); with DU-145 it was > 100 µM (inactive). The GI50 in the assay with Hs-578T is 66.5 µM (inactive); with M14 it was 21.4 µM (inactive); with BT-549 it was > 100 µM (inactive); in the assay on SK-MEL-5 it was 21.2 µM (inactive); in the assay on A498 it was > 100 µM (inactive); in the assay with HT-29, 42 µM (inactive). For the same compound, the GI50 in the assay with SF-268 is 60.5 µM (inactive).
As to `NC(Cc1c[nH]c(I)n1)C(=O)O` (stereo unspecified), the GI50 in the assay with SNB-75 was 25.6 µM (inactive); in the assay with OVCAR-5 it was > 100 µM (inactive); with K562 it was 53.6 µM (inactive); in the assay with COLO 205, > 100 µM (inactive); in the assay with NCI/ADR-RES it was 37.1 µM (inactive); in the assay with MDA-N, > 100 µM (inactive). For the same compound, the GI50 was > 100 µM (inactive) in the assay with NCI-H460; > 100 µM (inactive) in the assay with RPMI-8226; 41.1 µM (inactive) in the assay on UACC-257; 90.6 µM (inactive) with T47D; 37.4 µM (inactive) in the assay with SF-539; > 100 µM (inactive) in the assay with DU-145. Besides, the GI50 in the assay on Hs-578T is 23.8 µM (inactive); in the assay on M14 it was > 100 µM (inactive); in the assay on BT-549, 43.4 µM (inactive); with SK-MEL-5 it was 82.2 µM (inactive); in the assay on A498, > 100 µM (inactive); in the assay on HT-29 it was > 100 µM (inactive). The GI50 with SF-268 is 84.9 µM (inactive).
